pIC50: −log10 of the molar value. Values joined by “and” are separate entries in the source; they are usually repeats but may differ in a detail not shown here. Equal values may be shown once.
Tests used:
[1] = test system: HL-60 cells in BALB/cA Rag2-/-γc-/- mice; test: Subcutaneous implant of in vitro pretreated cells, tumor volume; type: in vivo, mouse; design: key to Tumor volume: mm^3; V = D×d²/2 (D longest, d shortest diameter); conditions: for tumor growth: HL-60 cells pretreated in vitro 4 days, s.c.; for Tumor volume: HL-60 cells pretreated in vitro for 96 hours with 270 nM of CM-444 or 300 nM of CM-1758, injected subcutaneously, individual mice
Experimental: (§1) The human AML HL-60 and ML-2 cell lines were first pretreated in vitro daily with 270 and 260 nM of CM-444 or 300 and 210 nM of CM-1758, respectively, for 4 days. Prior to injection in mice, the cell differentiation induction by CM-444 and CM-1758 compounds was verified by measuring CD11b by flow cytometry, as described earlier. Then, 5 × 10^6 cells of cells, pretreated with CM-444, […], or vehicle (80% saline solution, 10% DMSO and 10% Tween 20) and diluted in 100 µL of saline solution, were implanted subcutaneously into the flank of female BALB/cA Rag2^−/−γc^−/− mice between 6 and 8 weeks of age (n = 8). Tumor size was analyzed every 2–3 days using the following method: […], where D and d corresponded to the longest and shortest diameter, respectively. The maximal tumor size/burden permitted by the Animal Care and Ethics Committee of the University of Navarra is 2000 mm^3. In some cases, this limit was reached on the last day of measurement and the mice were immediately euthanized.

[2] = test system: ML-2 cells in BALB/cA Rag2-/-γc-/- mice; test: as above; type: in vivo, mouse; design: key to Tumor volume: mm^3; V = D×d²/2 (D longest, d shortest diameter); conditions: for tumor growth: ML-2 cells pretreated in vitro 4 days, s.c.; for Tumor volume: ML-2 cells pretreated in vitro for 96 hours, injected subcutaneously, individual mice (Fig 3A)
Experimental: as §1

[3] = test system: global 5-methylcytosine levels in HL-60, ML-2, MV4-11 and MOLM-13 cell lines; test: Dot blot; type: cell-based, human; conditions: HL-60, 270 nM CM-444 or 300 nM CM-1758, 48 h
Experimental: DNA purity and concentration were measured using a NanoDrop spectrophotometer (Thermo Scientific). A 500 ng amount of genomic DNA was loaded onto a nitrocellulose membrane (Amersham Hybond_N+, RPN203B, GE Healthcare), pre-wetted in 6X SSC for 10 min, using the Bio-Dot microfiltration apparatus (Cat No 170-6545, Bio-Rad) following the manufacturer’s instructions. Next, the membrane was incubated with 2X SSC for 5 min and cross-linked for 2 h at 80 °C. The membrane, after being blocked with Tropix I-block blocking reagent (Cat No AI300, Tropix) in PBS with 0.1% Tween 20 and 0.02 NaN3, was incubated with the primary antibody against 5-methylcytosine (monoclonal antibody 5-methylcytidine, Cat No BI-MECY-1000, Eurogentec) diluted 1:4000 o/n at 4 °C and then with alkaline phosphatase-conjugated secondary antibody. […] To ensure equal loading of total DNA on the membrane, the same blot was stained with 0.02% methylene blue in 0.3 M sodium acetate (pH 5.2).

[4] = target: T1, cytochrome P450 2D6 (Homo sapiens, UniProt P10635); test: CYP inhibition in human liver microsomes; type: in vitro ADME; conditions: 10 µM
T1 construct: Corning Cat # 452117); tissue Corning 452117; host or cells: human liver microsomes
T1 sequence (P10635 whole entry): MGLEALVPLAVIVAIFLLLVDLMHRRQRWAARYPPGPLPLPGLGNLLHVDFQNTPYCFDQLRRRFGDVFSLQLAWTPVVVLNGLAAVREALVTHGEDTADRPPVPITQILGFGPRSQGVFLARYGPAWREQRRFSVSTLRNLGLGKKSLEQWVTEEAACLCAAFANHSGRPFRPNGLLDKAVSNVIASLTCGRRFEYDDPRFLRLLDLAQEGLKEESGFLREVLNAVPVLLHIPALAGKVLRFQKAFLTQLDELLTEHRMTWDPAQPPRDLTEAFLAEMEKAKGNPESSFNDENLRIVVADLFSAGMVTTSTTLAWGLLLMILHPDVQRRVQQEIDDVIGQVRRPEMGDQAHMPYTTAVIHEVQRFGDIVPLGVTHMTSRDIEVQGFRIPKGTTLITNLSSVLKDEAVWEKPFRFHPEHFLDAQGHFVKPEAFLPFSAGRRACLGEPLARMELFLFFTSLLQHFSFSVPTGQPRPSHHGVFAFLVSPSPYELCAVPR
Experimental: (§2) This study was conducted at Wuxi (http://www.wuxi.com/). The inhibitory effects of CM-444 and CM-1758 on five human cytochrome P450s (1A2, 2C9, 2C19, 2D6 and 3A4) were evaluated in human liver microsomes. Test compounds (10 µM final concentration) or control compounds (α-naphthoflavone, sulfaphenazole, (+)-N-3-benzylnirvanol, quinidine, ketoconazole; 3-µM final concentration), and the corresponding substrates for each P450 isoform (1A2: phenacetin, 10-µM final concentration; 2C9: diclofenac, 5-µM final concentration; 2C19: S-mephenytoin, 30-µM final concentration, 2D6: dextromethorphan, 5-µM final concentration; 3A4: midazolam, 2-µM final concentration) were incubated with human liver microsomes (0.2-mg/mL final concentration; Corning Cat # 452117) and NADPH cofactor (1-mM final concentration, Chem-impex Cat # 00616) for 10 min at 37 °C. The reaction was terminated by adding 400 µL of cold stop solution (200 ng/mL tolbutamide and labetalol in acetonitrile), and the samples were centrifuged at 1520 g for 20 min. Next, 200-μL aliquots of supernatants were diluted with 100 μL of ultra-pure water and shaken for 10 min. The samples were analyzed by LC-MS/MS using an analyte/internal standard peak area ratio. Test compounds and positive controls were tested in duplicate. The percentage of inhibition was calculated as the ratio of substrate metabolite detected in treated and non-treated wells.

[5] = target: T2, cytochrome P450 3A4 (Homo sapiens, UniProt P08684); test: CYP inhibition in human liver microsomes; type: in vitro ADME; conditions: 10 µM
T2 construct: Corning Cat # 452117); tissue Corning 452117; host or cells: human liver microsomes
T2 sequence (P08684 whole entry): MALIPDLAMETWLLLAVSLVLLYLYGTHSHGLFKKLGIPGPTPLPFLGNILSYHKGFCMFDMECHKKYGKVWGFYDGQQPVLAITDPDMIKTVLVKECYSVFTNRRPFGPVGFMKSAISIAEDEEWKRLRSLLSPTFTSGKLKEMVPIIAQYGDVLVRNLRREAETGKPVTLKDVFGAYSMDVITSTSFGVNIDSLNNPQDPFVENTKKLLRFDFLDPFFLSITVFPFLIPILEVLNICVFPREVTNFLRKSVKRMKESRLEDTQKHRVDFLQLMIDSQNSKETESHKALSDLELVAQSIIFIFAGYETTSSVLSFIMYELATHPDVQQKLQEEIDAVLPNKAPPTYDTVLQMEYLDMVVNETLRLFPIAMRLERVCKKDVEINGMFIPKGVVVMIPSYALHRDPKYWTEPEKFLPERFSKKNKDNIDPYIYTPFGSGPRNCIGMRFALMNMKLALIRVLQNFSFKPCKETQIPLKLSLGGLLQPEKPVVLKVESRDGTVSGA
Experimental: as §2

[6] = target: T3, cytochrome P450 1A2 (Homo sapiens, UniProt P05177); test: CYP inhibition in human liver microsomes; type: in vitro ADME; conditions: 10 µM
T3 construct: Corning Cat # 452117); tissue Corning 452117; host or cells: human liver microsomes
T3 sequence (P05177 whole entry): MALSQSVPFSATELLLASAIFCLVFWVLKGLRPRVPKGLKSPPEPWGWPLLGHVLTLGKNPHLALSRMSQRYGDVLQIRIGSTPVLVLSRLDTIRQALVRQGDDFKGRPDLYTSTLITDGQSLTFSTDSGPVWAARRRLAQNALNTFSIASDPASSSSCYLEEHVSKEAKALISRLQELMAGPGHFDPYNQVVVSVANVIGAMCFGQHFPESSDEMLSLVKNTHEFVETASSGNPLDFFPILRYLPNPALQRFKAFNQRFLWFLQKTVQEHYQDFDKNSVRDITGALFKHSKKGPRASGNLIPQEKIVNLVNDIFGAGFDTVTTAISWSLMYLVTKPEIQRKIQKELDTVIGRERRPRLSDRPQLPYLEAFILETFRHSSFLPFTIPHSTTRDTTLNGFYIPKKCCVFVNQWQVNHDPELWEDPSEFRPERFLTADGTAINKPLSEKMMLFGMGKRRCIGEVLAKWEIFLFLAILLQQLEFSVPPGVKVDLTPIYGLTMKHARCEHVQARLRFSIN
Experimental: as §2

[7] = target: T4, cytochrome P450 2C9 (Homo sapiens, UniProt P11712); test: CYP inhibition in human liver microsomes; type: in vitro ADME; conditions: 10 µM
T4 construct: Corning Cat # 452117); tissue Corning 452117; host or cells: human liver microsomes
T4 sequence (P11712 whole entry): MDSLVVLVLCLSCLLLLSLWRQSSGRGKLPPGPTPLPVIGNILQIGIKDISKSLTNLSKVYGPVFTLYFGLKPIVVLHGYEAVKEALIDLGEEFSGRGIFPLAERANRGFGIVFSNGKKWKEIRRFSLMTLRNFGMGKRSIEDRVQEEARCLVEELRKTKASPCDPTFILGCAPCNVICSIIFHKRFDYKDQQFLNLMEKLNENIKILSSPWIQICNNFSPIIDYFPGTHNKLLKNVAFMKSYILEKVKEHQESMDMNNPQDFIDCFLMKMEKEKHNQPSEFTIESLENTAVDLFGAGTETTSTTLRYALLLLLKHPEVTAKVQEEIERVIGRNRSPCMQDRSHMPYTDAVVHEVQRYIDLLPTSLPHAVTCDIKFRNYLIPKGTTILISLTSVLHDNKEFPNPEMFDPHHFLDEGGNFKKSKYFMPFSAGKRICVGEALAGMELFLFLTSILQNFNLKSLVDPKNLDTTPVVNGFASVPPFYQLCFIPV
Experimental: as §2

[8] = target: T5, cytochrome P450 2C19 (Homo sapiens, UniProt P33261); test: CYP inhibition in human liver microsomes; type: in vitro ADME; conditions: 10 µM
T5 construct: Corning Cat # 452117); tissue Corning 452117; host or cells: human liver microsomes
T5 sequence (P33261 whole entry): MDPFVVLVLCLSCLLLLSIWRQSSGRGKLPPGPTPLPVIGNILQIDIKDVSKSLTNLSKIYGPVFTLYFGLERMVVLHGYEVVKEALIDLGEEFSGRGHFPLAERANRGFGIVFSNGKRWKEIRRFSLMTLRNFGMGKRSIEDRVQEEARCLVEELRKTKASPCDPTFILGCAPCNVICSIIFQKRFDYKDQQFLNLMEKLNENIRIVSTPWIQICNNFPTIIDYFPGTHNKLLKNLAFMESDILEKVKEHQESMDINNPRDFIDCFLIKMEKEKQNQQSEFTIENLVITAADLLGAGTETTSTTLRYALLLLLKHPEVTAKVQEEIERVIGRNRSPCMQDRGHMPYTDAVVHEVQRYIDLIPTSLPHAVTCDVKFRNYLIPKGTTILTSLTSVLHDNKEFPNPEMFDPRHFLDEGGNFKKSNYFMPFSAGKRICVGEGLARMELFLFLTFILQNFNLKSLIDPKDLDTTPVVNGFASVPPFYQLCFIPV
Experimental: as §2

[9] = target: T6, HDAC11 (Homo sapiens, UniProt Q96DB2); test: HDAC11 Eurofins assay; type: biochemical
T6 sequence (Q96DB2 1-347): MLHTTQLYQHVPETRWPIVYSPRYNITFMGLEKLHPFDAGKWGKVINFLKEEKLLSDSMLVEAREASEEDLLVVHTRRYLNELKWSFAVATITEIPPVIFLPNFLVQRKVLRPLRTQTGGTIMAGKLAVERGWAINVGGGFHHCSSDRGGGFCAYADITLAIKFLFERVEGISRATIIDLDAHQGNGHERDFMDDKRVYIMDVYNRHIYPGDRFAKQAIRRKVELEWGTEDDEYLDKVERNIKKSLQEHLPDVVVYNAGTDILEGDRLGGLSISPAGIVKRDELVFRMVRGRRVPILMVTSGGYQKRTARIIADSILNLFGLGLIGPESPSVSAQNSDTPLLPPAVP

[10] = target: HDAC3 (Homo sapiens, UniProt O15379); test: HDAC enzymatic assay, fluorescence-labeled substrate; type: biochemical; conditions: for inhibition at 10 µM: source data of Fig. 1B
HDAC3, sequence (O15379 whole entry): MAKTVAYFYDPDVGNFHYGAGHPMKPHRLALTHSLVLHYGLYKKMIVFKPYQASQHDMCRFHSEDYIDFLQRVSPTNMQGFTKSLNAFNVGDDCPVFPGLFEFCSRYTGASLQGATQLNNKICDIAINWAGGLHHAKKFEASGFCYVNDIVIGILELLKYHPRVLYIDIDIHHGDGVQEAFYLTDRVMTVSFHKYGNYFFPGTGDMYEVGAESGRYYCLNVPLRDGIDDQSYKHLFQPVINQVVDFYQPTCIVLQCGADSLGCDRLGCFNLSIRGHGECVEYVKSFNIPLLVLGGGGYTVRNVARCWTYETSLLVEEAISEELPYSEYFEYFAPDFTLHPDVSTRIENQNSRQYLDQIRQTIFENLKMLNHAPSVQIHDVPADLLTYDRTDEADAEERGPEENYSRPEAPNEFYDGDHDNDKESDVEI
HDAC3, sequence (Q9Y618 395-489 partner limits assumed): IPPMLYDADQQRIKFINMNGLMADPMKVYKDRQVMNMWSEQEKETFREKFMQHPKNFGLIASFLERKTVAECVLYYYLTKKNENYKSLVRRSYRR

[11] = target: T7, HDAC4 (Homo sapiens, UniProt P56524); test: HDAC assay (Eurofins); type: biochemical
T7 construct: purchased Eurofins (contracted assay service)
T7 sequence (P56524 whole entry): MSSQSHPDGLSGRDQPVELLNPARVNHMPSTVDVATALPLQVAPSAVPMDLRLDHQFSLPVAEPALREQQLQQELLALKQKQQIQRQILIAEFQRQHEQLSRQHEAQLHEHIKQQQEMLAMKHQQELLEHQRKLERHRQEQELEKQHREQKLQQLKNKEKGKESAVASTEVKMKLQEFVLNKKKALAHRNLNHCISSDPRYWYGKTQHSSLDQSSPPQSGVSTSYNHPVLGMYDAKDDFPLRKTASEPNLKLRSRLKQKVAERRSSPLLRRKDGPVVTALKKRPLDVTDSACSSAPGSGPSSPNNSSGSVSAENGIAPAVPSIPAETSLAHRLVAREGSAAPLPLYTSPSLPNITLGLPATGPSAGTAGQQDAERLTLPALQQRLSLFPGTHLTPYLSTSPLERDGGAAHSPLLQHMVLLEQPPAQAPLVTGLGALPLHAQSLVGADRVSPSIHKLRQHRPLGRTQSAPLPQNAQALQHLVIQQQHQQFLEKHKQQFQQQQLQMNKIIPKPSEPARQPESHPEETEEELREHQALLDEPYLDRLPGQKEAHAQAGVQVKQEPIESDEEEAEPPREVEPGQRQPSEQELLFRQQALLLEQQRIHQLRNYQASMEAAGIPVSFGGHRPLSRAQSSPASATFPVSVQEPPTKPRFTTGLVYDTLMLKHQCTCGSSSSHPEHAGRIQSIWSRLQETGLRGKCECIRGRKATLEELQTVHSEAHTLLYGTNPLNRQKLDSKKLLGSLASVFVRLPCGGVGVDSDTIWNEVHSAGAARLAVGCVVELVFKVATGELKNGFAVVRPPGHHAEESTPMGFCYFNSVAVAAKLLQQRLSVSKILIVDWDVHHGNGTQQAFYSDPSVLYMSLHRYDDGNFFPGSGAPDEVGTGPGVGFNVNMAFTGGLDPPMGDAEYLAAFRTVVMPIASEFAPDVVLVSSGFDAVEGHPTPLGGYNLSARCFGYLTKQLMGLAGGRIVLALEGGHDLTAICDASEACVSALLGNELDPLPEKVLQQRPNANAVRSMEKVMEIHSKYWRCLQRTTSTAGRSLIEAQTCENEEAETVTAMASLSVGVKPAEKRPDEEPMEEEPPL

COc1cc2nc(-c3ccc(C)o3)cc(NCC3CCN(c4ncc(C(=O)NO)cn4)CC3)c2cc1OC [CM-444, 2-[4-[[[6,7-dimethoxy-2-(5-methyl-2-furyl)-4-quinolyl]amino]methyl]-1-piperidyl]pyrimidine-5-carbohydroxamic acid]
tumor growth [1]: tumor growth was significantly slower | Tumor volume ([1]; day 0, in mm³): 0 | Tumor volume ([1]; day 6): 0 (3×) and 15.188 and 103.406 and 17.053 | Tumor volume ([1]; day 8, in mm³): 74.6826 and 76.624 and 60.9783 and 227.696 and 55.1928 and 10.6605 and 0 | Tumor volume ([1]; day 10, in mm³): 208.487 and 290.654 and 187.094 and 596.573 and 195.686 and 84.5628 and 14.1488 | Tumor volume ([1]; day 13, in mm³): 1082.75 and 1016.65 and 1040.97 and 728.909 and 903.701 and 1085.29 | tumor growth [2]: tumor growth was significantly slower | Tumor volume ([2]; day 0, in mm³): 0 | Tumor volume ([2]; day 5, in mm³): 0 | Tumor volume ([2]; day 7, in mm³): 0 | Tumor volume ([2]; day 9): 0 (5×) and 2.103 and 2.907 and 1.967 | Tumor volume ([2]; day 12): 0 (3×) and 15.5058 and 44.8074 and 14.292 and 43.7037 and 21.7346 | Tumor volume ([2]; day 14, in mm³): 56.0772 and 79.1967 and 185.795 and 76.3392 and 203.44 and 147.179 and 18.725 and 23.4078 | Tumor volume ([2]; day 16, in mm³): 136.524 and 233.533 and 382.095 and 345.104 and 527.015 and 508.257 and 54.687 and 46.2692 | 5mC level (dot blot) [3]: no changes | P450S Inhibition (2D6) [4]: 10.8% | P450S Inhibition (3A4) [5]: 50.8% | P450S Inhibition (1A2) [6]: 58.8% | P450S Inhibition (2C9) [7]: 0% | P450S Inhibition (2C19) [8]: 5.6% | pIC50 [9]: 6.85 | inhibition at 10 µM [10]: 90% | pIC50 [11]: 7.21 | inhibition at 10 µM [11]: 96%

COc1cc2nc(-c3cc(C)oc3C)cc(NCC3CCN(c4ncc(C(=O)NO)cn4)CC3)c2cc1OC [CM-1758, 2-[4-[[[2-(2,5-dimethyl-3-furyl)-6,7-dimethoxy-4-quinolyl]amino]methyl] -1-piperidyl]pyrimidine-5-carbohydroxamic acid]
tumor growth [1]: tumor growth was significantly slower | Tumor volume ([1]; day 0, in mm³): 0 | Tumor volume ([1]; day 6): 14.6888 and 24.2273 and 0 (4×) and 45.3546 | Tumor volume ([1]; day 8): 103.082 and 62.3824 and 0 (2×) and 92.0448 and 53.4746 and 85.0123 | Tumor volume ([1]; day 10, in mm³): 433.416 and 271.101 and 281.205 and 32.0688 and 347.688 and 41.4834 and 382.357 | Tumor volume ([1]; day 13, in mm³): 1283.62 and 996.2 and 1210.81 and 1389.27 and 1272.73 and 1452.46 and 1063.15 | tumor growth [2]: tumor growth was significantly slower | Tumor volume ([2]; day 0, in mm³): 0 | Tumor volume ([2]; day 5, in mm³): 0 | Tumor volume ([2]; day 7, in mm³): 0 | Tumor volume ([2]; day 9): 1.83 and 2.997 and 3.143 and 0 (4×) and 2.907 | Tumor volume ([2]; day 12, in mm³): 16.9153 and 75.9412 and 211.561 and 0 and 9.058 and 82.0914 and 8.878 and 27.0425 | Tumor volume ([2]; day 14, in mm³): 153.626 and 316.908 and 512.533 and 39.4763 and 33.8029 and 280.96 and 104.197 and 181.612 | Tumor volume ([2]; day 16, in mm³): 325.692 and 736.294 and 1010.72 and 175.673 and 76.8746 and 574.138 and 425.416 and 598.506 | 5mC level (dot blot) [3]: no changes | P450S Inhibition (2D6) [4]: 13.1% | P450S Inhibition (3A4) [5]: 46.9% | P450S Inhibition (1A2) [6]: 55.4% | P450S Inhibition (2C9) [7]: 12.2% | P450S Inhibition (2C19) [8]: 23.7% | pIC50 [9]: 6.82 | pIC50 [10]: 7.85 | inhibition at 10 µM [10]: 90% | pIC50 [11]: 6.89 | inhibition at 10 µM [11]: 97%
